Active and inactive are the calls of the source. The rule behind the calls is not given here.
How the values were obtained:
[1] = Stability in mouse liver microsomes assessed as parent compound remaining measured after 60 mins; assay type: ADME, Microsome; settings: read-out: Stability
[2] = Stability in human liver microsomes assessed as parent compound remaining measured after 60 mins; assay type: ADME, Microsome; settings: read-out: Stability
[3] = biological target: T1, Non-receptor tyrosine-protein kinase TYK2 (Homo sapiens, UniProt P29597); experiment: Inhibition of TYK2 dependent IFNalpha-stimulated STAT3 phosphorylation in human Jurkat cells; assay type: cell-based
[4] = biological target: T1, Non-receptor tyrosine-protein kinase TYK2; experiment: Binding affinity to TYK2 JH2 domain (unknown origin) assessed as melting temperature at 10 uM by thermal shift assay; settings: tested as the 2H-labelled form
[5] = biological target: T1, Non-receptor tyrosine-protein kinase TYK2; experiment: Binding affinity to TYK2 JH2 domain (unknown origin) assessed as melting temperature at 1 uM by thermal shift assay; settings: tested as the 2H-labelled form
Mus musculus = experiment: Anti-colitis activity against anti-CD40 induced immunodeficient Rag1 KO colitis mouse model assessed as decrease in colon weight at 15 to 30 mg/kg, po bid; assay type: functional, organism-based; settings: dose 15-30 mg/kg, tested as the 2H-labelled form

T1 sequence (P29597 whole entry, the tested form may be a part): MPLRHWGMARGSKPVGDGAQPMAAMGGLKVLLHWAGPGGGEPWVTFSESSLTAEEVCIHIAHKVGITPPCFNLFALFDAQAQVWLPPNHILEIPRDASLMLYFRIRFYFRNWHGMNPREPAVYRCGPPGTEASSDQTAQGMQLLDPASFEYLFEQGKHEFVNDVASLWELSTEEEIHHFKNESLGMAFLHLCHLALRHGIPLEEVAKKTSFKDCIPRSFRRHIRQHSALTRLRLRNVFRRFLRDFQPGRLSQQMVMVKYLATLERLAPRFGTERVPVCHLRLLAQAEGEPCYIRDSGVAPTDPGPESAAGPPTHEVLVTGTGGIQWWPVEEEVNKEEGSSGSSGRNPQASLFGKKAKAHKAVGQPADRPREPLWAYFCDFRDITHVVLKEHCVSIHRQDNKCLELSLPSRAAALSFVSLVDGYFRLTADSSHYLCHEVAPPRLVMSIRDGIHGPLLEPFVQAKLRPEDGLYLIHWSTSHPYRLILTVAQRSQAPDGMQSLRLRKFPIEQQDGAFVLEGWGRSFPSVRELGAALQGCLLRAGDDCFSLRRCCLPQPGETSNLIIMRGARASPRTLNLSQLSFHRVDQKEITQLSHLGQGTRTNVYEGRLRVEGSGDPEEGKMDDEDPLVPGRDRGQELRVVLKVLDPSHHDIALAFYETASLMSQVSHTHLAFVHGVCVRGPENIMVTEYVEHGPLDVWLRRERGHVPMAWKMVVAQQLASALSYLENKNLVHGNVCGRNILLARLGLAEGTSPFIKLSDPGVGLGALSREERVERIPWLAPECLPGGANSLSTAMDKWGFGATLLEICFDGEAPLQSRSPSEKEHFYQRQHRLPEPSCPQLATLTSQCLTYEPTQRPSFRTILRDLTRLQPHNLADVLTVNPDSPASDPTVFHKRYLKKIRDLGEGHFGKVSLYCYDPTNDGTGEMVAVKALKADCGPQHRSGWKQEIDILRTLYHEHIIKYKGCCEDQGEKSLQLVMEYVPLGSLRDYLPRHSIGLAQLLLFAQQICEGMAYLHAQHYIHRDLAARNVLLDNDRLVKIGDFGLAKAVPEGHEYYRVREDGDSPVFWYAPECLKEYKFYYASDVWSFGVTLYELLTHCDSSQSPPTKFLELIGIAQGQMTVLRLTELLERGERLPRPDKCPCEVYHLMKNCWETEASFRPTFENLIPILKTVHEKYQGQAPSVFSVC

SMILES	remaining at 1 h [1] [%]	remaining at 1 h [2] [%]	IC50 [3] [nM]	Tm [4] [°C]	Tm [5] [°C]	Activity (Mus musculus)
[2H]C([2H])([2H])NC(=O)c1nnc(Nc2ccccn2)cc1Nc1cccc(C(=O)Nc2ccc(N3CCCCC3=O)cc2)c1OC	23	44.5	0.81	–	–	–
CNC(=O)c1nnc(NC(=O)C2CC2)cc1Nc1cccc(C(=O)Nc2ccc(N3CCCCC3)cc2)c1OC	–	–	–	63.4	58.2	–
CNC(=O)c1nnc(NC(=O)C2CC2)cc1Nc1cccc(C(=O)Nc2ccc(NC(=O)C3CCCC3)cc2)c1OC	–	–	–	56.2	52.7	–
[2H]C([2H])([2H])NC(=O)c1nnc(Nc2ccc(F)cn2)cc1Nc1cccc(C(=O)Nc2ccc(N3CCCCC3=O)cc2)c1OC	27.5	39.9	1	–	–	–
CNC(=O)c1nnc(Nc2ccccn2)cc1Nc1cccc(C(=O)Nc2ccc(N3CCCCC3=O)cc2)c1OC	–	–	–	66.5	64	–
CNC(=O)c1nnc(NC(=O)C2CC2)cc1Nc1cccc(C(=O)Nc2ccc(C3CCCNC3=O)cc2)c1OC (centres undefined)	–	–	–	70.2	60.1	–
CNC(=O)c1nnc(Nc2ccc(F)cn2)cc1Nc1cccc(C(=O)Nc2ccc(N3CCCCC3=O)cc2)c1OC	–	–	–	68.8	66	–
[2H]C([2H])([2H])NC(=O)c1nnc(NC(=O)C2CC2)cc1Nc1cccc(C(=O)Nc2ccc(N3CCCCC3=O)c(Cl)c2)c1OC	4.53	0.06	3.1	–	–	–
CNC(=O)c1nnc(NC(=O)C2CC2)cc1Nc1cccc(C(=O)Nc2cccc(-n3ccccc3=O)c2)c1OC	–	–	–	57.6	52.9	–
CNC(=O)c1nnc(NC(=O)C2CC2)cc1Nc1cccc(C(=O)Nc2ccc(N3CCCCS3(=O)=O)cc2)c1OC	–	–	–	64.8	58.7	–
CNC(=O)c1nnc(NC(=O)C2CC2)cc1Nc1cccc(C(=O)Nc2ccc(-n3ccccc3=O)cc2)c1OC	–	–	–	62.2	56	–
CNC(=O)c1nnc(NC(=O)C2CC2)cc1Nc1cccc(C(=O)Nc2ccc(-n3cccn3)cc2)c1OC	–	–	–	61.1	56.2	–
CNC(=O)c1nnc(NC(=O)C2CC2)cc1Nc1cccc(C(=O)Nc2ccc(N3CCCCC3=O)cc2F)c1OC	–	–	–	60.8	56.2	–
CNC(=O)c1nnc(NC(=O)C2CC2)cc1Nc1cccc(C(=O)Nc2ccc(-c3ccc(F)c(=O)[nH]3)cc2)c1OC	–	–	–	60.1	55.9	–
CNC(=O)c1nnc(NC(=O)C2CC2)cc1Nc1cccc(C(=O)Nc2ccc(N3CCCCC3=O)c(Cl)c2)c1OC	–	–	–	65.5	60.4	–
CNC(=O)c1nnc(NC(=O)C2CC2)cc1Nc1cccc(C(=O)Nc2ccc(N3CCCCCC3=O)cc2)c1OC	–	–	–	64.8	59.6	–
CNC(=O)c1nnc(NC(=O)C2CC2)cc1Nc1cccc(C(=O)Nc2ccc(N3CCCCC3=O)cc2)c1OC	–	–	–	66.6	60.6	–
[2H]C([2H])([2H])NC(=O)c1nnc(NC(=O)C2CC2)cc1Nc1cccc(C(=O)Nc2ccc(NC(=O)C3CCCC3)cc2)c1OC	–	–	10	–	–	–
[2H]C([2H])([2H])NC(=O)c1nnc(NC(=O)C2CC2)cc1Nc1cccc(C(=O)Nc2ccc(N3CCCCC3=O)cc2F)c1OC	36.6	37.8	5.7	–	–	–
CNC(=O)c1nnc(NC(=O)C2CC2)cc1Nc1cccc(C(=O)Nc2ccc(N3CCCC3=O)cc2)c1OC	–	–	–	61.9	56.5	–

Now from value to compound, other results behind:

remaining at 1 h [1] [%]	remaining at 1 h [2] [%]	IC50 [3] [nM]	Tm [4] [°C]	Tm [5] [°C]	SMILES	Activity (Mus musculus)
54.9	78.5	6.4	–	–	[2H]C([2H])([2H])NC(=O)c1nnc(NC(=O)C2CC2)cc1Nc1cccc(C(=O)Nc2ccc(-n3cccn3)cc2)c1OC	–
–	–	51	–	–	[2H]C([2H])([2H])NC(=O)c1nnc(NC(=O)C2CC2)cc1Nc1cccc(C(=O)Nc2ccc(-n3ccnc3)cc2)c1OC	–
55.1	86.9	8.3	–	–	[2H]C([2H])([2H])NC(=O)c1nnc(NC(=O)C2CC2)cc1Nc1cccc(C(=O)Nc2ccc(N3CCCC3=O)cc2)c1OC	–
5.63	0.39	2.5	–	–	[2H]C([2H])([2H])NC(=O)c1nnc(NC(=O)C2CC2)cc1Nc1cccc(C(=O)Nc2ccc(N3CCCCCC3=O)cc2)c1OC	–
–	–	–	58.2	54.9	CCn1cnc(-c2ccc(NC(=O)c3cccc(Nc4cc(NC(=O)C5CC5)nnc4C(=O)NC)c3OC)cc2)n1	–
–	–	–	54	52.2	CNC(=O)c1nnc(NC(=O)C2CC2)cc1Nc1cccc(C(=O)Nc2ccc(-n3ccnc3)cc2)c1OC	–
–	–	–	56.5	52.5	CNC(=O)c1nnc(NC(=O)C2CC2)cc1Nc1cccc(C(=O)Nc2ccc(-c3cccc(=O)[nH]3)cc2)c1OC	–
–	–	–	57	53.8	CNC(=O)c1nnc(NC(=O)C2CC2)cc1Nc1cccc(C(=O)Nc2ccc(-c3ncn(C)n3)cc2)c1OC	–
–	–	14	–	–	[2H]C([2H])([2H])NC(=O)c1nnc(NC(=O)C2CC2)cc1Nc1cccc(C(=O)Nc2ccc(-c3ncn(C)n3)cc2)c1OC	–
–	–	11	–	–	[2H]C([2H])([2H])NC(=O)c1nnc(NC(=O)C2CC2)cc1Nc1cccc(C(=O)Nc2cccc(-n3ccccc3=O)c2)c1OC	–
–	–	–	62	57	CNC(=O)c1nnc(NC(=O)C2CC2)cc1Nc1cccc(C(=O)Nc2ccc(-c3ncn(C4CC4)n3)cc2)c1OC	Active
9	1.91	12	–	–	[2H]C([2H])([2H])NC(=O)c1nnc(NC(=O)C2CC2)cc1Nc1cccc(C(=O)Nc2ccc(N3CCCCC3)cc2)c1OC	–
44.8	41.8	1.8	–	–	[2H]C([2H])([2H])NC(=O)c1nnc(NC(=O)C2CC2)cc1Nc1cccc(C(=O)Nc2ccc(C3CCCNC3=O)cc2)c1OC (centres undefined)	–
71.3	75.8	3.2	–	–	[2H]C([2H])([2H])NC(=O)c1nnc(NC(=O)C2CC2)cc1Nc1cccc(C(=O)Nc2ccc(-n3ccccc3=O)cc2)c1OC	–
–	–	55	–	–	[2H]C([2H])([2H])NC(=O)c1nnc(NC(=O)C2CC2)cc1Nc1cccc(C(=O)Nc2ccc(-c3cccc(=O)[nH]3)cc2)c1OC	–
–	–	43	–	–	[2H]C([2H])([2H])NC(=O)c1nnc(NC(=O)C2CC2)cc1Nc1cccc(C(=O)Nc2ccc(-c3ncn(CC)n3)cc2)c1OC	–
53.9	50.6	1.4	–	–	[2H]C([2H])([2H])NC(=O)c1nnc(NC(=O)C2CC2)cc1Nc1cccc(C(=O)Nc2ccc(N3CCCCC3=O)cc2)c1OC	–
18.2	3.26	1.9	–	–	[2H]C([2H])([2H])NC(=O)c1nnc(NC(=O)C2CC2)cc1Nc1cccc(C(=O)Nc2ccc(N3CCCCS3(=O)=O)cc2)c1OC	–
–	–	24	–	–	[2H]C([2H])([2H])NC(=O)c1nnc(NC(=O)C2CC2)cc1Nc1cccc(C(=O)Nc2ccc(-c3cccnc3)cc2)c1OC	–
–	–	–	55.5	54.1	CNC(=O)c1nnc(NC(=O)C2CC2)cc1Nc1cccc(C(=O)Nc2ccc(-c3cccnc3)cc2)c1OC	–
58.2	81.8	13	–	–	[2H]C([2H])([2H])NC(=O)c1nnc(NC(=O)C2CC2)cc1Nc1cccc(C(=O)Nc2ccc(-c3ccc(F)c(=O)[nH]3)cc2)c1OC	–

— ChEMBL document CHEMBL5252617, “Design, synthesis and biological evaluation of novel N-(methyl-d3) pyridazine-3-carboxamide derivatives as TYK2 inhibitors” (Bioorg Med Chem Lett, 2023)
